Activity calls are given as the source filed them.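 The calls were made as follows: active = EC50 under 50 µM in a live-cell viability test; inactive = the rest.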
Tested on: Molm13 AML cells, XTT viability
Assay: Molm13 antiproliferative activity – cell-based, XTT viability, AHD inhibitor project, dose response (AID 1794802)

Row | SMILES | EC50
1 | O=C(NCC1CCNCC1)c1c[nH]c2cc(-c3ccc(N4CCCC4)cc3)ccc12 | 50 µM
2 | NC(=O)c1ccc(-c2ccc3cc(C(=O)NCC4CCNCC4)sc3c2)cc1 | > 51 µM (inactive)
3 | O=C(NCC1CCNCC1)c1cc2cc(-c3ccc(N4CCCCC4)cc3)ccc2[nH]1 | 10 µM
4 | O=C(NCC1CCNCC1)c1cc2cc(-c3ccc(N4CCCCC4)cc3)ccc2s1 | 5.1 µM
5 | O=C(NCC1CCNCC1)c1coc2cc(-c3ccc(N4CCCCC4)cc3)ccc12 | 13 µM
6 | O=C(NCC1CCNCC1)c1c[nH]c2cc(-c3ccc(N4CCCCC4)cc3)ccc12 | 29 µM
7 | O=C(NCC1CCNCC1)c1cc2ccc(-c3ccc(N4CCCCC4)cc3)cc2s1 | 4.7 µM
8 | NCc1ccc(-c2ccc3cc(C(=O)NCC4CCNCC4)oc3c2)cc1 | > 51 µM (inactive)
9 | O=C(NCC1CCNCC1)c1cc2ccc(-c3ccc(N4CCCC4)cc3)cc2s1 | 9.4 µM
10 | O=C(NCC1CCNCC1)c1cc2cc(-c3cn[nH]c3)ccc2[nH]1 | > 51 µM (inactive)

— PubChem BioAssay AID1794802 (Yongcheng Song lab at Baylor College of Medicine, 2022)
